{"source": "patent US6824801B2", "about": "“Process for producing foods having good keeping qualities and food keeping agents” (Nihon Starch Co., Ltd., priority 2000, dated 2004)", "key": {"[1]": {"system": "Salmonella typhimurium IFO 12529", "test": "minimum growth-inhibiting concentration (MIC) of AF, influence of heat treatment (Table A)", "type": "cell-based", "from_the_text": "(§1) As described in the first process, 1,5-D-anhydrofructose is an antibacterial substance having a high safety, but the present inventors have found to obtain the following advantages when 1,5-D-anhydrofructose is previously subjected to a heat treatment. That is, an antibacterial power of 1,5-D-anhydrofructose can be further increased, and the antibacterial power is developed at a low concentration of 1,5-D-anhydrofructose, as compared with a case where 1,5-D-anhydrofructose is not subjected to the heat treatment. Consequently, a food containing 1,5-D-anhydrofructose is difficult to putrefy and at the same time, the antibacterial spectrum becomes wider."}, "[2]": {"system": "Bacillus subtillis IAM 1249", "test": "minimum growth-inhibiting concentration (MIC) of AF, influence of heat treatment (Table A)", "type": "cell-based", "from_the_text": "as §1"}, "[3]": {"system": "Staphylococcus aureus FDA 209P", "test": "minimum growth-inhibiting concentration (MIC) of AF, influence of heat treatment (Table A)", "type": "cell-based", "from_the_text": "as §1"}, "[4]": {"system": "Streptococcus lactis IAM 1249", "test": "minimum growth-inhibiting concentration (MIC) of AF, influence of heat treatment (Table A)", "type": "cell-based", "from_the_text": "as §1"}, "[5]": {"system": "Escherichia coli NRIC 1023", "test": "minimum growth-inhibiting concentration (MIC) of AF, influence of heat treatment (Table A)", "type": "cell-based", "from_the_text": "as §1"}, "[6]": {"system": "Bacillus subtillis IAM 1249", "test": "Test Example 1 antibacterial power test using turbidimetry (Table 12)", "type": "cell-based", "conditions": "for OD^660 (turbidity): shake culture 37° C., 72 hours", "description": "AF was subjected to an antibacterial power test using a turbidimetry. More specifically, a soybean-casein digest broth medium (having a pH value of 5.5) previously sterilized and 1% of AF were placed into a test tube and heated under heating conditions shown in Table 12. Then, 8.7×10^4 CFU of Bacillus subtillis IAM 1249 was inoculated into the test tube, shake culture was carried out at 37° C. for 72 hours, and the turbidity (OD, 660 nm) was then measured."}, "[7]": {"system": "Escherichia coli NRIC 1023", "test": "Test Example 2 number of living bacteria in noodle soup preserved at 30° C. (FIG. 4)", "description": "FIG. 4 is a graph showing the number of Escherichia coli NRIC 1023 living in a noodle soup under preservation.\n(§2) This will be described in detail later in Test Example 2.\n(§3) 40 Grams of a powdery soup stock (produced by Yamaki, Co.) and 200 ml of commercially available soy sauce were added to 1,000 ml of water to prepare a noodle soup. Bacteria were inoculated into the noodle soup, and the noodle soup was preserved at 30° C., and then, the number of living bacteria was counted. FIG. 3 is a curve showing the number of living Bacillus subtillis IAM 1249 (which will be simply referred to as B. subtillis hereinafter), and FIG. 4 is a curve showing the number of living Escherichia coli NRIC 1023 (which will be simply referred to as E. coli hereinafter). In FIGS. 3 and 4, A-1 and A′-1 are curves each indicating the number of living B. subtillis or E. colli inoculated into the unsterilized noodle soup. In the cases of A-1 and A′-1,1,5-D-anhydrofructose was not added, and P and P′ indicate the number of bacteria initially generated.\n(§4) A-2 and A′-2 are curves each indicating the number of living B. subtillis or E. colli inoculated into the noodle soup sterilized by heating in hot water at […]. for 10 minutes. In the cases of A-2 and A′-2,1,5-D-anhydrofructose was not added, and the numbers of bacteria initially generated are indicated by Q and Q′, respectively. […]"}, "[8]": {"system": "Bacillus subtillis", "test": "Example 11 curry preservability, sensory evaluation test (Table 14)", "conditions": "curry with AF", "description": "7 Parts of beef, 57 parts of vegetables (12 parts of potato, 40 parts of onion and 5 parts of carrot), 1 part of a curry powder, 6 parts of fatty oil, 0.2 parts of sodium glutamate, 1 part of starch and 40 parts of a soup were mixed together, and the mixture was heated and cooked at 80° C. for 1 hour. The resulting product was a curry containing a somewhat larger amount of soup and having a low viscosity. The following operations were conducted in a clean bench. The curry was subdivided each in an amount of 95 grams into ten plugged vessels previously sterilized. The ten vessels were divided into two groups each consisting of five vessels. A 30% solution of AF subjected to an aseptic filtration was added in an amount of 5 g into each of the vessels in one of the groups. Then, 2×10 ^5 nutritious cells of Bacillus subtillis incubated previously were inoculated into the group, and was mixed uniformly. Five grams of a 30% solution of AF subjected to an aseptic filtration was added into each of the vessels in the other group. Then, 2×10^5 nutritious cells of Bacillus subtillis incubated previously were inoculated into the group, and after mixing uniformly, heated at 60° C. for 10 minutes and then cooled rapidly. Both of the groups were preserved at […], and the preservability of them was compared by a sensory evaluation test."}, "[9]": {"system": "many bacteria", "conditions": "against many bacteria; 'has been recognized'; cited from earlier work"}, "[10]": {"system": "Bacillus subtillis IAM 1249", "test": "Test Example 2 number of living bacteria in noodle soup preserved at 30° C. (FIG. 3)", "description": "FIG. 3 is a graph showing the number of Bacillus. subtillis IAM 1249 living in a noodle soup under preservation.\nas §2, §3, §4"}, "[11]": {"system": "Pseudomonas aeruginosa IFO 12680", "test": "number of bacteria killed by heating in soybean-casein digest broth medium pH 5.5 (FIG. 1)", "type": "cell-based", "conditions": "1% 1,5-D-anhydrofructose, heating at 55° C. for ten minutes, pH 5.5 broth", "from_the_text": "FIG. 1 is a curve indicating the number of Pseudomonas aeruginosa IFO 12680 killed by heating.\n(§5) FIGS. 1 and 2 show curves each indicating the number of gram-negative bacteria killed in a soybean-casein digest broth medium (pH of 5.5) by heating."}, "[12]": {"system": "Lactobacillus casei", "test": "Test Example 3 swelling of noodle soup sacks preserved at 30° C. (Table 13)", "conditions": "2% of AF", "description": "40 Grams of a powdery soup stock (produced by […], Co.), 200 ml of commercially available soy sauce and 2% of AF were added to 1000 ml of water. The mixture was aseptically filtered and charged in an amount of 100 ml into each of ten polypropylene sacks previously sterilized. Meanwhile, 1 ml of the noodle soup (containing a number of living bacteria of 3.1×10^6/ml) deteriorated due to “swelling” caused by Lactobacillus casei was charged into each of the above-prepared ten sacks, which were then sealed so as air not to be left therein. The ten sacks were divided into two groups each consisting of five sacks. One of the groups was not heated, and the other group was heated in a hot water at 55° C. for 10 minutes. Then, both of them were preserved at 30° C., and the occurrence of “swelling” was observed."}, "[13]": {"system": "Salmonella typhimurium IFO 12529", "test": "number of bacteria killed by heating in soybean-casein digest broth medium pH 5.5 (FIG. 2)", "type": "cell-based", "conditions": "1% 1,5-D-anhydrofructose, heated at 60° C. for 10 minutes, pH 5.5 broth", "from_the_text": "FIG. 2 is a curve indicating the number of which Salmonella typhimurium IFO 12529 killed by heating.\nas §5"}, "[14]": {"conditions": "noodle soup, heating at 550° C. for 10 minutes after addition of 1,5-D-anhydrofructose vs heating without it"}}, "note": "Where two headings read alike, the source gives them in different places."}
{"smiles": "O=C1CO[C@H](CO)[C@@H](O)[C@@H]1O", "note": "[heated AF, 1,5-D-anhydrofructose]", "values": [{"measurement": "minimum growth-inhibiting concentration (MIC)", "setting": "[1]", "value": 2, "unit": "%"}, {"measurement": "minimum growth-inhibiting concentration (MIC)", "setting": "[2]", "value": 1, "unit": "%"}, {"measurement": "minimum growth-inhibiting concentration (MIC)", "setting": "[3]", "value": 0.5, "unit": "%"}, {"measurement": "minimum growth-inhibiting concentration (MIC)", "setting": "[4]", "value": 1, "unit": "%"}, {"measurement": "minimum growth-inhibiting concentration (MIC)", "setting": "[5]", "value": 2, "unit": "%"}]}
{"smiles": "O=C1CO[C@H](CO)[C@@H](O)[C@@H]1O", "note": "[AF, 1,5-D-anhydrofructose]", "values": [{"measurement": "OD^660 (turbidity)", "setting": "[6]; 1% of AF added and not heated", "value": 0.836}, {"measurement": "OD^660 (turbidity)", "setting": "[6]; 1% of AF, heated at 55° C. for 10 minutes", "value": 0.513}, {"measurement": "OD^660 (turbidity)", "setting": "[6]; 1% of AF, heated at 60° C. for 10 minutes", "value": 0.437}, {"measurement": "OD^660 (turbidity)", "setting": "[6]; 1% of AF, heated at 80° C. for 10 minutes", "value": 0.355}, {"measurement": "OD^660 (turbidity)", "setting": "[6]; 1% of AF, heated at 90° C. for 10 minutes", "value": 0.338}, {"measurement": "antibacterial power relative to the control with 1% of AF added and not heated", "setting": "[6]; heated at 55° C. for 10 minutes after addition of 1% of AF, (1.160-0.513)/(1.160-0.836)", "value": "about two times"}, {"measurement": "proliferation of bacteria during preservation", "setting": "[7]; noodle soup containing 1,5-D-anhydrofructose, 30° C., B′-2 vs B′-3", "value": "suppressed"}, {"measurement": "number of living bacteria initially generated (from Q′ to R′)", "setting": "[7]; [14]", "value": "reduced by about one figure"}, {"measurement": "number of normal vessels / total number of vessels", "setting": "[8]; Heated at 60° C. for 10 minutes, preservation time 12", "value": "5/5"}, {"measurement": "number of normal vessels / total number of vessels", "setting": "[8]; Heated at 60° C. for 10 minutes, preservation time 24", "value": "5/5"}, {"measurement": "number of normal vessels / total number of vessels", "setting": "[8]; Heated at 60° C. for 10 minutes, preservation time 36", "value": "5/5"}, {"measurement": "number of normal vessels / total number of vessels", "setting": "[8]; Heated at 60° C. for 10 minutes, preservation time 48", "value": "5/5"}, {"measurement": "number of normal vessels / total number of vessels", "setting": "[8]; Heated at 60° C. for 10 minutes, preservation time 60", "value": "0/5"}, {"measurement": "number of normal vessels / total number of vessels", "setting": "[8]; Not heated, preservation time 12", "value": "5/5"}, {"measurement": "number of normal vessels / total number of vessels", "setting": "[8]; Not heated, preservation time 24", "value": "5/5"}, {"measurement": "number of normal vessels / total number of vessels", "setting": "[8]; Not heated, preservation time 36", "value": "0/5"}, {"measurement": "concentration exhibiting proliferation-inhibiting effect", "setting": "[9]", "value": "≤ 1", "unit": "%"}, {"measurement": "minimum growth-inhibiting concentration (MIC)", "setting": "[1]; listed as non-heated AF", "value": 4, "unit": "%"}, {"measurement": "minimum growth-inhibiting concentration (MIC)", "setting": "[2]; listed as non-heated AF", "value": 3, "unit": "%"}, {"measurement": "minimum growth-inhibiting concentration (MIC)", "setting": "[3]; listed as non-heated AF", "value": 1.5, "unit": "%"}, {"measurement": "minimum growth-inhibiting concentration (MIC)", "setting": "[4]; listed as non-heated AF", "value": 3, "unit": "%"}, {"measurement": "minimum growth-inhibiting concentration (MIC)", "setting": "[5]; listed as non-heated AF", "value": 5, "unit": "%"}, {"measurement": "proliferation of bacteria during preservation", "setting": "[10]; noodle soup containing 1,5-D-anhydrofructose, 30° C., B-2 vs B-3", "value": "suppressed"}, {"measurement": "number of living bacteria initially generated (from Q to R)", "setting": "[10]; [14]", "value": "reduced by about one figure"}, {"measurement": "number of bacteria remaining alive relative to the control", "setting": "[11]", "value": "one tenth of that in the control"}, {"measurement": "number of normal sacks / total number of sacks", "setting": "[12]; heated at 55° C. for 10 minutes, 5 preservation days at 30° C.", "value": "5/5"}, {"measurement": "number of normal sacks / total number of sacks", "setting": "[12]; heated at 55° C. for 10 minutes, 10 preservation days at 30° C.", "value": "3/5"}, {"measurement": "number of normal sacks / total number of sacks", "setting": "[12]; heated at 55° C. for 10 minutes, 15 preservation days at 30° C.", "value": "1/5"}, {"measurement": "number of normal sacks / total number of sacks", "setting": "[12]; heated at 55° C. for 10 minutes, 20 preservation days at 30° C.", "value": "0/5"}, {"measurement": "number of normal sacks / total number of sacks", "setting": "[12]; not heated, 5 preservation days at 30° C.", "value": "4/5"}, {"measurement": "number of normal sacks / total number of sacks", "setting": "[12]; not heated, 10 preservation days at 30° C.", "value": "0/5"}, {"measurement": "number of bacteria remaining alive relative to the control", "setting": "[13]", "value": "one hundredth or less of that in the control"}]}
